Laboratory results as given in ChEMBL document CHEMBL1201862, “PubChem BioAssay data set” (2004).
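Step 1: Grow cells in 96-well plates. Step 2: Expose to compound for 48 hours at 5 concentrations. Step 3: Interpolate endpoints linearly; if unreached, use highest concentration. Abbreviation: GI50, concentration required for 50% inhibition of growth.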 Active and inactive are the calls of the source. Rule as the data show it: active = GI50 up to about 1.1 µM and inactive = higher.

Experiments:
Experiment in all cases: NCI anticancer screen, dose series, 48 h
TK-10 = test system: TK-10
HOP-62 = test system: HOP-62
NCI-H23 = test system: NCI-H23
OVCAR-5 = test system: OVCAR-5
SNB-75 = test system: SNB-75
NCI-H226 = test system: NCI-H226
UACC-257 = test system: UACC-257
HCT-15 = test system: HCT-15
K562 = test system: K562
MOLT-4 = test system: MOLT-4
IGROV-1 = test system: IGROV-1
RPMI-8226 = test system: RPMI-8226
COLO 205 = test system: COLO 205
OVCAR-8 = test system: OVCAR-8
SNB-19 = test system: SNB-19
NCI-H460 = test system: NCI-H460
UACC-62 = test system: UACC-62
SR = test system: SR
PC-3 = test system: PC-3
SF-539 = test system: SF-539
KM12 = test system: KM12
SK-OV-3 = test system: SK-OV-3
BT-549 = test system: BT-549
MDA-N = test system: MDA-N
A498 = test system: A498
MDA-MB-231 = test system: MDA-MB-231
ACHN = test system: ACHN
SN12C = test system: SN12C
T47D = test system: T47D
CCRF-CEM = test system: CCRF-CEM
SF-295 = test system: SF-295
SK-MEL-28 = test system: SK-MEL-28
NCI-H522 = test system: NCI-H522
A549 = test system: A549
SK-MEL-5 = test system: SK-MEL-5
HCT-116 = test system: HCT-116
786-0 = test system: 786-0
HCC 2998 = test system: HCC 2998
HL-60 = test system: HL-60
NCI/ADR-RES = test system: NCI/ADR-RES
SW-620 = test system: SW-620
U-251 = test system: U-251
CAKI-1 = test system: CAKI-1
HT-29 = test system: HT-29
LOX IMVI = test system: LOX IMVI
M14 = test system: M14
DU-145 = test system: DU-145
RXF 393 = test system: RXF 393
UO-31 = test system: UO-31
OVCAR-4 = test system: OVCAR-4
MDA-MB-435 = test system: MDA-MB-435
EKVX = test system: EKVX

CSC1=Nc2ccccc2-c2nc(-c3ccccc3)cc(-c3ccccc3)c2C1
GI50 (TK-10): 16.2 µM (inactive)
GI50 (HOP-62): 19.8 µM (inactive)
GI50 (NCI-H23): 12.4 µM (inactive)
GI50 (OVCAR-5): 33 µM (inactive)
GI50 (SNB-75): 4.26 µM (inactive)
GI50 (NCI-H226): 87.9 µM (inactive)
GI50 (UACC-257): 28.1 µM (inactive)
GI50 (HCT-15): 31.6 µM
GI50 (K562): 30.8 µM (inactive)
GI50 (MOLT-4): > 100 µM (inactive)
GI50 (IGROV-1): 10 µM (inactive)
GI50 (RPMI-8226): > 100 µM (inactive)
GI50 (COLO 205): 55 µM (inactive)
GI50 (OVCAR-8): 9.98 µM (inactive)
GI50 (SNB-19): 6.4 µM (inactive)
GI50 (NCI-H460): 5.12 µM (inactive)
GI50 (UACC-62): 9.77 µM (inactive)
GI50 (SR): 31.3 µM (inactive)
GI50 (PC-3): 21.4 µM (inactive)
GI50 (SF-539): 19.2 µM (inactive)
GI50 (KM12): 24.9 µM (inactive)
GI50 (SK-OV-3): 12.2 µM (inactive)
GI50 (BT-549): 39.7 µM (inactive)
GI50 (MDA-N): 26.5 µM (inactive)
GI50 (A498): 9.93 µM (inactive)
GI50 (MDA-MB-231): 14.2 µM (inactive)
GI50 (ACHN): 12.4 µM (inactive)
GI50 (SN12C): 28.2 µM (inactive)
GI50 (T47D): 10.4 µM (inactive)
GI50 (CCRF-CEM): > 100 µM (inactive)
GI50 (SF-295): 13.6 µM (inactive)
GI50 (SK-MEL-28): 35.6 µM (inactive)
GI50 (NCI-H522): 4.7 µM (inactive)
GI50 (A549): 16 µM (inactive)
GI50 (SK-MEL-5): 16.6 µM (inactive)
GI50 (HCT-116): 5.16 µM (inactive)
GI50 (786-0): 10.2 µM (inactive)
GI50 (HCC 2998): 41.6 µM (inactive)
GI50 (HL-60): > 100 µM (inactive)
GI50 (NCI/ADR-RES): 19.7 µM (inactive)
GI50 (SW-620): 15.7 µM (inactive)
GI50 (U-251): 7.03 µM (inactive)
GI50 (CAKI-1): 12.4 µM (inactive)
GI50 (HT-29): 30.5 µM (inactive)
GI50 (LOX IMVI): 23.2 µM (inactive)
GI50 (M14): 13.9 µM (inactive)
GI50 (DU-145): 60.4 µM (inactive)
GI50 (RXF 393): 6.5 µM (inactive)
GI50 (UO-31): 23.5 µM (inactive)
GI50 (OVCAR-4): 8.93 µM (inactive)
GI50 (MDA-MB-435): 22.2 µM (inactive)
GI50 (EKVX): 23.1 µM (inactive)
